The values that follow come from patent US10662195B2, “Protein kinase conjugates and inhibitors” (Celgene Avilomics Research, Inc., priority 2009, dated 2020).

This experiment addresses BTK (Homo sapiens, UniProt Q06187). Nature of the experiment: Omnia assay for potency assessment against BTK. The following applies: 30 min pre-incubation; read-out: IC50_APP BTK. It is filed as biochemical. The source says:
B. Omnia Assay Protocol for Potency Assessment Against BTK
Below describes the protocol using EGFR-WT and EGFR-T790M/L858R and the protocol BTK-optimized reagent conditions then follow.
The mechanics of the assay platform are best described by the vendor (Invitrogen, Carlsbad, Calif.) on their website at the following URL: http://www.invitrogen.com/content.cfm?pageid=11338 or http://www.invitrogen.com/site/us/en/home/Products-and-Services/Applications/Drug-Discovery/Target-and-Lead-Identification-and-Validation/KinaseBiology/KB-Misc/Biochemical-Assays/Omnia-Kinase-Assays.html.
Briefly, 10× stocks of EGFR-WT (PV3872) from Invitrogen and EGFR-T790M/L858R (40350) from BPS Bioscience, San Diego, Calif., 1.13×ATP (AS001A) and appropriate Tyr-Sox conjugated peptide substrates (KCZ1001) were prepared in 1× kinase reaction buffer consisting of 20 mM Tris, pH 7.5, 5 mM MgCl2, 1 mM EGTA, 5 mM β-glycerophosphate, 5% glycerol (10× stock, KB002A) and 0.2 mM DTT (DS001A). 5 μL of each enzyme were pre-incubated in a Corning (#3574) 384-well, white, non-binding surface microtiter plate (Corning, N.Y.) for 30 min. at 27° C. with a 0.5 μL volume of 50% DMSO and serially diluted compounds prepared in 50% DMSO. Kinase reactions were started with the addition of 45 μL of the ATP/Tyr-Sox peptide substrate mix and monitored every 30-90 seconds for 60 minutes at λex360/λem485 in a Synergy^4 plate reader from BioTek (Winooski, Vt.). At the conclusion of each assay, progress curves from each well were examined for linear reaction kinetics and fit statistics (R^2, 95% confidence interval, absolute sum of squares). Initial velocity (0 minutes to ˜30 minutes) from each reaction was determined from the slope of a plot of relative fluorescence units vs time (minutes) and then plotted against inhibitor concentration to estimate IC50 from log [Inhibitor] vs Response, Variable Slope model in GraphPad Prism from GraphPad Software (San Diego, Calif.).
The modified BTK-optimized reagent conditions for the above protocol are:
[BTK]=5 nM, [ATP]=[…], [Y5-Sox]=[…] (ATP KMapp˜[…]).
The reported IC50_APP and IC50 values are in units of nM.

BTK, sequence (Q06187 whole entry): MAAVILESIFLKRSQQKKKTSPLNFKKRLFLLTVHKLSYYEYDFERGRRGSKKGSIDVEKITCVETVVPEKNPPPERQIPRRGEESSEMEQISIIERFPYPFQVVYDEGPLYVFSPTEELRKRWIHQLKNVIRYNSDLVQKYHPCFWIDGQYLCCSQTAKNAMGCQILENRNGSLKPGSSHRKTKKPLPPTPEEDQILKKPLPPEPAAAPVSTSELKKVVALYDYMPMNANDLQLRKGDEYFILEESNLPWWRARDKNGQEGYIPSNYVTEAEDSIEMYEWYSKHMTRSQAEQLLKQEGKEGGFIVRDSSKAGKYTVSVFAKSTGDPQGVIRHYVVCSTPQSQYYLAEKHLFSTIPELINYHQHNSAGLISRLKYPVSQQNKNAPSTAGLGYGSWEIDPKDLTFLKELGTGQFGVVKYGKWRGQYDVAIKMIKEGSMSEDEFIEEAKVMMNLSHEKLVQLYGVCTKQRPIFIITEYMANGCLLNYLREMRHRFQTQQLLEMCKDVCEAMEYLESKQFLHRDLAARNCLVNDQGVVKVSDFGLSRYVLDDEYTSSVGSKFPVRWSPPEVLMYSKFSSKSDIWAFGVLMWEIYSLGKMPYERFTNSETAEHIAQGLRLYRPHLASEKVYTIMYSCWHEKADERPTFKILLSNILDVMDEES

As for `C=CC(=O)N1CCC(Sc2nc(Nc3ncc(C#N)s3)cc(N3CCN(C)CC3)n2)CC1` [II-2, 2-(2-(1-Acryloylpiperidin-4-ylthio)-6-(4-methylpiperazin-1-yl)pyrimidin-4-ylamino)thiazole-5-carbonitrile], the IC50 was 0.572 nM.
